Consider one compound from patent US10308631B2, “Selective anti-cancer compounds” (NATIONAL UNIVERSITY OF SINGAPORE, priority 2015, dated 2019).

Holding throughout (assay type): cell-based, human
The test system of experiment [1] is non-transformed normal BJ cells. Kind of experiment: Time-lapsed live cell analysis of mitotic progression (GFP-Histone H2B). The conditions noted are these: 2.5 μM, monitored every 10 min. As for the experimental part: (§1) A: is a histogram showing isogenic non-transformed and oncogene-transformed BJ cells stably expressing GFP-tagged Histone H2B as a marker for chromosome segregation, treated with Compound 1 (a131) at 2.5 μM final concentration. Mitotic progression of these cells was monitored every 10 min. More than 100 cells per condition were quantified and classified into 3 groups: no, mild and severe mitotic defects with prolonged mitotic arrest, chromosome mis-segregation and failure in cytokinesis. […] The bars represent 5 μm in length. C: is a histogram showing quantification of defects in spindle formation and chromosome alignments (n>100 cells per condition).
(§2) Isogenic non-transformed and oncogene-transformed BJ cells stably expressing GFP-tagged Histone H2B as a marker for chromosome segregation were treated with Compound 1 at 2.5 μM final concentration. Mitotic progression of these cells was monitored every 10 min and images were acquired using a Super Resolution Microscope (Nikon) equipped with an iXon EM+ 885 EMCCD camera (Andor) mounted on a Nikon Eclipse Ti-E inverted microscope with a CFI Apo objective and a Stage Top Incubation with Digital CO2 mixer (Tokai). The images were processed with the NIS-Elements AR software. […]

The test system of experiment [2] is oncogene-transformed BJ cells. The experiment is described as above. The conditions noted are these: 2.5 μM, monitored every 10 min. As for the experimental part:
as §1, §2

Experiment [3] deals with non-transformed normal BJ cells. As to the kind of experiment: Immunofluorescence of chromosome alignment, bipolar spindle and spindle poles. The following applies: 2.5 μM, 4 h, then MG132 1.5 h. On the procedure:
as §1
(§3) To investigate why massive chromosome mis-segregation occurs in oncogene-transformed BJ cells when treated with Compound 1, but not in non-transformed BJ cells, the effects of Compound 1 were studied on isogenic BJ cell lines (transformed and non-transformed) that stably express GFP-Histone H2B. Cells cultured in accordance with Biology Example 3 were treated with Compound 1 at 2.5 μM final concentration for 4 h followed by MG132 for another 1.5 h to allow chromosome alignment. […]

Experiment [4] deals with oncogene-transformed BJ cells. Described as above. The conditions noted are these: 2.5 μM, 4 h, then MG132 1.5 h. As for the experimental part: as §1, §3
In experiment [5] the test system is LC3 (LC3-II/LC3-I) in HeLa cells. As to the kind of experiment: Immunoblot analysis of LC3 in HeLa cells. The conditions noted are these: 0.625-10 μM, 6 h. On the procedure: FIG. 1 is a diagrammatic representation of an immunoblot analysis showing the dual inhibition of the autophagic process and mitotic progression by Compound 1 (a131). HeLa cells were treated with the indicated μM concentration of Compound 1 (a131) or chloroquine for 6 h. Cells were harvested and total lysates were analysed by detecting the mitotic marker phospho-histone H3 at serine 10 (pH3 (Ser10)) and the autophagosome marker LC3. The band intensity ratios of LC3-II/LC3-I as compared to DMSO control (lane 1, 0 μM chloroquine, and lane 7, 0 μM a131) are indicated (Ratio). Antibodies raised against β-actin were used as an internal loading control.
The ability of Compound 1 to inhibit lysosome function was examined using immunoblotting. HeLa cervical cancer cells were cultured in Dulbecco's modified Eagle's medium (DMEM) supplemented with 10% Fetal Bovine Serum (FBS, Thermo Scientific). […]
Defects in lysosome function and inhibition of autophagy can be measured by accumulation of LC3-phosphatidylethanolamine conjugated non-soluble form (LC3-II), which are converted from soluble LC3-I. Thus, antibodies raised against LC3 (Cell Signaling, Cat#4108) were used to determine lysosomal function and integrity. […] The inhibitory ability of Compound 1 was also quantitatively compared to CQ.

In experiment [6] the test system is HeLa cells. Kind of experiment: Soft agar colony formation assay (anchorage-independent growth). The following applies: sub-micromolar concentrations, seven days. As for the experimental part: FIG. 8 is a histogram showing that Compound 1 (a131) potently suppresses anchorage-independent growth of cancer cells. HeLa cells were suspended in 2 mL of soft agar at the final concentration of 0.4%, and were then placed on the top of 2 mL layer of 1% agar in 6-well plates, in triplicate. Subsequently, Compound 1 (a131) was added to the plates at concentrations of 0, 0.15, 0.3, 0.6, 1.25. 2.5 and 5 μM. Seven (7) days after the addition of Compound 1 (a131) to soft agar cultures, the number of colonies per plate were counted in an unbiased manner using automated MATLAB software. The average number of colonies from triplicates was plotted with standard deviations.
Soft agar colony formation assays are known to better mimic the features of in vivo tumours growing in three dimensions than cancer cell lines growing in an in vitro tissue culture. Therefore, the anti-proliferative effects of Compound 1 on cancer cells growing anchorage-independently in soft agar were studied too.
HeLa cells as cultured in Biology Example 1 (1×10^4 cells/well) were suspended in 2 mL of soft agar at a final concentration of 0.4%. […] Seven days after the addition of Compound 1, the number of colonies per plate was counted in an unbiased manner using MATLAB software.

As for `N#C/C(=C\c1cccc2cnccc12)c1c[nH]c2ccccc12` [Compound 1, (Z)-2-(1H-indol-3-yl)-3-(isoquinolin-5-yl)acrylonitrile], the mitotic defects entry is “only induced a short period of mitotic arrest with mild mitotic defects” in experiment [1]; “severe mitotic defects with prolonged mitotic arrest, chromosome mis-segregations and failure in cytokinesis” in experiment [2]. For the same compound, the “chromosome alignment and spindle formation” value in experiment [3] is “did not show marked defects in chromosome alignment”; in experiment [4], “massively misaligned chromosomes with the formation of multipolar spindles”. Also, the “levels of LC3-II” value in experiment [5] was “markedly increased the levels of LC3-II”. Further, in experiment [6], the “reduction of HeLa cell colonies grown in soft agar” value was “greater than 50%”.
